Measured values: patent US20100105705A1, “PURINYL DERIVATIVES AND THEIR USE AS POTASSIUM CHANNEL MODULATORS” (NeuroSearch A/S, priority 2007, published 2010)

biological target: T1, hSK3 channels (Homo sapiens, UniProt Q9UGI6); experiment: Whole-cell patch-clamp recording of ionic current through SK channels, subtype 3, in HEK293 cells expressing hSK3; format: cell-based
T1 construct: expressed in transfected cells; host or cells: HEK293
Protocol: The ionic current through small-conductance Ca^2+-activated K^+ channels (SK channels, subtype 3) is recorded using the whole-cell configuration of the patch-clamp technique in a classic patch-clamp set-up using HEK293 tissue culture cells expressing hSK3 channels as described in e.g. WO 2006/100212.
The SC100 value determined is defined as the Stimulating Concentration required for increasing the baseline current by 100%. The below SC100 values are an indication of the SK3 activating properties of the compounds of the invention.

SMILES | SC100 (Stimulating Concentration required for increasing the baseline current by 100%) [µM]
Cn1cnc2c(Nc3ccc(Cl)cc3)nc(-n3ccc(C(F)(F)F)n3)nc21 [Compound 6.1, (4-Chloro-phenyl)-[9-methyl-2-(3-trifluoromethyl-pyrazol-1-yl)-9H-purin-6-yl]-amine] | 0.3
Cn1cnc2c(Nc3ccc(Cl)cc3)nc(-n3cccn3)nc21 [Compound 6.2, (4-Chloro-phenyl)-(9-methyl-2-pyrazol-1-yl-9H-purin-6-yl)-amine] | 0.18
Cn1cnc2c(NC3CCCCC3)nc(-n3cccn3)nc21 [Compound 6.3, Cyclohexyl-(9-methyl-2-pyrazol-1-yl-9H-purin-6-yl)-amine] | 0.7
Cc1ccn(-c2nc(Nc3ccc(F)cc3)c3ncn(C)c3n2)n1 [Compound 6.6, (4-Fluoro-phenyl)-[9-methyl-2-(3-methyl-pyrazol-1-yl)-9H-purin-6-yl]-amine] | 0.02
Cn1cnc2c(Nc3ccc(Cl)cc3)nc(-n3ccc(N)n3)nc21 [Compound 7.1, [2-(3-Amino-pyrazol-1-yl)-9-methyl-9H-purin-6-yl]-(4-chloro-phenyl)-amine] | 0.6
Cc1ccn(-c2nc(Nc3ccc(Cl)cc3)c3ncn(C)c3n2)n1 [Compound 9.1, (4-Chloro-phenyl)-[9-methyl-2-(3-methyl-pyrazol-1-yl)-9H-purin-6-yl]-amine] | 0.02
Cc1ccn(-c2nc(NCCc3ccccc3)c3ncn(C)c3n2)n1 [Compound 9.3, [9-Methyl-2-(3-methyl-pyrazol-1-yl)-9H-purin-6-yl]-phenethyl-amine] | 0.6
Cc1c2c(nn1-c1nc(Nc3ccc(F)cc3)c3ncn(C)c3n1)CCC2 [Compound 9.5, (4-Fluoro-phenyl)-[9-methyl-2-(3-methyl-5,6-dihydro-4H-cyclopentapyrazol-2-yl)-9H-purin-6-yl]-amine] | 0.15

tested on: not given; experiment: not given

SMILES | melting point [°C]
Cn1cnc2c(Nc3ccc(Cl)cc3)nc(-c3ccccn3)nc21 [Compound 13.1, (4-Chloro-phenyl)-(9-methyl-2-pyridin-2-yl-9H-purin-6-yl)-amine] | 185.4 to 190.5
